The record followed here is publication PMC10175918 (Communications Biology, 2023).

Like-named read-outs stand apart in the source and are kept apart here.

Experiment in all cases: TGFα-shedding assay-based GPCR screening with chimeric Gα subunit proteins
What all share (format): cell-based

The target of test [1] is T1, 348 GPCRs (Homo sapiens, UniProt P30968).
T1 construct: expressed in transfected cells; host or cells: HEK293A
T1 sequence (P30968 1-328): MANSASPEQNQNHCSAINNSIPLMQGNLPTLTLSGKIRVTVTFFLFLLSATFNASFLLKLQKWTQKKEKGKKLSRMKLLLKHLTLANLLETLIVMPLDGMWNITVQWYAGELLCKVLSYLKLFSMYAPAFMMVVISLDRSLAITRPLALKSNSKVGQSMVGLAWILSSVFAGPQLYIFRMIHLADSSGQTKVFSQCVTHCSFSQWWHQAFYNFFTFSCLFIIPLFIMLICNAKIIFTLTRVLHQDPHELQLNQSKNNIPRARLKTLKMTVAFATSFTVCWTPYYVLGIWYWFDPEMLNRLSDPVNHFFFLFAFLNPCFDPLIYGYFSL
The conditions noted are these: 10µM, Favipiravir 100μM.

Test [2] deals with T2, 348 GPCRs (Homo sapiens, UniProt P32241).
T2 construct: expressed in transfected cells; host or cells: HEK293A
T2 sequence (P32241 31-457): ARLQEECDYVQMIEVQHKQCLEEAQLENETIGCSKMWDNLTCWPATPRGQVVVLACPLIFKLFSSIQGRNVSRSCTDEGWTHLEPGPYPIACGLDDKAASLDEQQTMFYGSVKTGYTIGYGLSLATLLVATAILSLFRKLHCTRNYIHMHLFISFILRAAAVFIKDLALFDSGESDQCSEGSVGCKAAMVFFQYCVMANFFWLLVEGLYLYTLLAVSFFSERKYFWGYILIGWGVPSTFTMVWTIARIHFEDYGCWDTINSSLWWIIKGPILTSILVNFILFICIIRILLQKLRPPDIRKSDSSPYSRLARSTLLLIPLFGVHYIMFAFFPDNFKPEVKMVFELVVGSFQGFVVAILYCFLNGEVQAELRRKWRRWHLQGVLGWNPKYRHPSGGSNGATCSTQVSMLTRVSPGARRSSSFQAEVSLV

The target in test [3] is T3, 348 GPCRs (Homo sapiens, UniProt Q01726).
T3 construct: expressed in transfected cells; host or cells: HEK293A

Test [4] has as its target T4, 348 GPCRs (Homo sapiens, UniProt Q5UAW9).
T4 construct: expressed in transfected cells; host or cells: HEK293A
The conditions noted are these: 10µM, Favipiravir 100μM.

In test [5] the target is T5, 348 GPCRs (Homo sapiens, UniProt Q96PE1).
T5 sequence (Q96PE1 34-1338): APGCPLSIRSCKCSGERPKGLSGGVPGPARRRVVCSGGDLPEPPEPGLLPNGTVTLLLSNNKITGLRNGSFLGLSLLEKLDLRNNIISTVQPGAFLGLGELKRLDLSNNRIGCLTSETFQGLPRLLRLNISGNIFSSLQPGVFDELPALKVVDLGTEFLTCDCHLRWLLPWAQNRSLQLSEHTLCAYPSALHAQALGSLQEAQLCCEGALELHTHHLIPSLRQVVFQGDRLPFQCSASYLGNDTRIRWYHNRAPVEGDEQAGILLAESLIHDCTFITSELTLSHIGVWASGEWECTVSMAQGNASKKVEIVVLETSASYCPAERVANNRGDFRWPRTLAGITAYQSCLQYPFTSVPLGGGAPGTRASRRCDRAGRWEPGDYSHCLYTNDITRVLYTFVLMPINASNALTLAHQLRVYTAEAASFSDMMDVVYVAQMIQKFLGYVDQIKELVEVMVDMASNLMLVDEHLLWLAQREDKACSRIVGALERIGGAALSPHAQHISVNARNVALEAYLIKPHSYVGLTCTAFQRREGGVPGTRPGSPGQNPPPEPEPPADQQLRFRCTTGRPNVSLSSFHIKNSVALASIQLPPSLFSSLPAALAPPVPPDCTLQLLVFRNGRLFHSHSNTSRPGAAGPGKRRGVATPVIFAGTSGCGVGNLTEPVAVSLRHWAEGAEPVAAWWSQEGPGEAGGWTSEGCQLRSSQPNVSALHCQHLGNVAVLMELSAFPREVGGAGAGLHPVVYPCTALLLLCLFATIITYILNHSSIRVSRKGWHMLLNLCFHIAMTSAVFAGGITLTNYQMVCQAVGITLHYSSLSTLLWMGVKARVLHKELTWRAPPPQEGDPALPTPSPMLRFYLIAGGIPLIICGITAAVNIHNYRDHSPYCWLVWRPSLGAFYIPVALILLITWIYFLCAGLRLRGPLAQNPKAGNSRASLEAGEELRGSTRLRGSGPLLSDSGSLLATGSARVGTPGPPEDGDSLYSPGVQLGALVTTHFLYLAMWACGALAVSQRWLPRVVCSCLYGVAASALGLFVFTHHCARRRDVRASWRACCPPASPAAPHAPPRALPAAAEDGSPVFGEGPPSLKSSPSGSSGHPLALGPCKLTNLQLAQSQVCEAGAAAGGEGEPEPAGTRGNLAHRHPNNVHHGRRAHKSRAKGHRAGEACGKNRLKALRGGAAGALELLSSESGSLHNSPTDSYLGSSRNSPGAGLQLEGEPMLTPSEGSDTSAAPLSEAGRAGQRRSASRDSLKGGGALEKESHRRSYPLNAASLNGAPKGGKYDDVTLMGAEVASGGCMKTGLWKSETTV

The target of test [6] is T6, 348 GPCRs (Homo sapiens, UniProt Q9BXC0).
T6 construct: expressed in transfected cells; host or cells: HEK293A
The conditions noted are these: 10µM, Favipiravir 100μM.

The target in test [7] is T7, 348 GPCRs (Homo sapiens, UniProt Q9BZJ8).
T7 construct: expressed in transfected cells; host or cells: HEK293A

Test [8] concerns the target T8, 348 GPCRs (Homo sapiens, UniProt Q9Y3P9).
T8 construct: expressed in transfected cells; host or cells: HEK293A
The conditions noted are these: 10µM, Favipiravir 100μM.

[9] abbreviates: read-out: % GPCR activation compared to TPA, GNRHR (gonadotropin releasing hormone receptor).
The mark [10] stands for this setting: read-out: % GPCR activation compared to TPA, GPCR VIPR1 (vasoactive intestinal peptide receptor 1).
The mark [11] stands for this setting: read-out: % GPCR activation compared to TPA, GPCR MC1R (melanocyte-stimulating hormone receptor).
Setting [12] is: read-out: % GPCR activation compared to TPA, GPR157 (G Protein-Coupled Receptor 157).
Where [13] appears, read: read-out: % GPCR activation compared to TPA, GPCR GPR124 (Adhesion G Protein-Coupled Receptor A2 (ADGRA2)).
The mark [14] stands for this setting: read-out: % GPCR activation compared to TPA, GPR81 (hydroxycarboxylic acid receptor 1).
Where [15] appears, read: read-out: % GPCR activation compared to TPA, GPCR GPR61 (G protein-coupled receptor 61).
Setting [16] is: read-out: % GPCR activation compared to TPA, RABGAP1 (Rab GTPase-activating protein 1).
Where [17] appears, read: GNRHR (gonadotropin releasing hormone receptor), read-out: % GPCR activation compared to TPA.
The mark [18] stands for this setting: GPR157 (G Protein-Coupled Receptor 157), read-out: % GPCR activation compared to TPA.
Setting [19] is: GPR81 (hydroxycarboxylic acid receptor 1), read-out: % GPCR activation compared to TPA.
Where [20] appears, read: RABGAP1 (Rab GTPase-activating protein 1), read-out: % GPCR activation compared to TPA.
[21] abbreviates: GPCR VIPR1 (vasoactive intestinal peptide receptor 1), read-out: % GPCR activation compared to TPA.
Setting [22] is: GPCR MC1R (melanocyte-stimulating hormone receptor), read-out: % GPCR activation compared to TPA.
Setting [23] is: GPCR GPR124 (Adhesion G Protein-Coupled Receptor A2 (ADGRA2)), read-out: % GPCR activation compared to TPA.
[24] abbreviates: GPCR GPR61 (G protein-coupled receptor 61), read-out: % GPCR activation compared to TPA.

T7 sequence (Q9BZJ8 whole entry): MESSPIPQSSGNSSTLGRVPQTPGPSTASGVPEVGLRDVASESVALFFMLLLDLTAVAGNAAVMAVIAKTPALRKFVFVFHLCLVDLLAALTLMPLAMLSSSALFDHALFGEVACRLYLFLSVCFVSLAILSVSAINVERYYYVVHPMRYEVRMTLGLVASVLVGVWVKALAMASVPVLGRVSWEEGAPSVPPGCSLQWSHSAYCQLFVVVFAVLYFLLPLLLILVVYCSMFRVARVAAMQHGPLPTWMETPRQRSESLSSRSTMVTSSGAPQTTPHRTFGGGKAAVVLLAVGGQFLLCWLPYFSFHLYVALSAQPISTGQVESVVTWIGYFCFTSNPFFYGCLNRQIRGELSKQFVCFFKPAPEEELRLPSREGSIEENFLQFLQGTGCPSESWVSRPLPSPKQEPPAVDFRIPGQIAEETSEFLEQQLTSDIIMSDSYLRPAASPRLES
T6 sequence (Q9BXC0 whole entry): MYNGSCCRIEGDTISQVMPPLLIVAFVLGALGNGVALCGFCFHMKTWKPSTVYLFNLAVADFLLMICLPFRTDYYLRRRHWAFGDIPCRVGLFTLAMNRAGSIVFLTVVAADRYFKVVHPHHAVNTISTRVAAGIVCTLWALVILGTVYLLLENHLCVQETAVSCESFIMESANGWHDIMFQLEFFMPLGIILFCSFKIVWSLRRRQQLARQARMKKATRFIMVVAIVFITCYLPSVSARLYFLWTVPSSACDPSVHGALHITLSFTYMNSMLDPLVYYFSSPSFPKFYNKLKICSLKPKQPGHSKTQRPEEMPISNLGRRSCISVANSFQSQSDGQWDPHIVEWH
T4 sequence (Q5UAW9 whole entry): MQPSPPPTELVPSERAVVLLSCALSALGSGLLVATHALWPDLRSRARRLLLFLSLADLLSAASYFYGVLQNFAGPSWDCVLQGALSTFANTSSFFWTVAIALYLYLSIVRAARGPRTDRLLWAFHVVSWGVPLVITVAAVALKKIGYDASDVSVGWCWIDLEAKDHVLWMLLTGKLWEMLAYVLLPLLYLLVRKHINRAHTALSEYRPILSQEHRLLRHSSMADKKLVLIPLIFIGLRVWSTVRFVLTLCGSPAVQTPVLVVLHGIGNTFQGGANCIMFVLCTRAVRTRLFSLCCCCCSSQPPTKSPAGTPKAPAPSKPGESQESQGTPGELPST
T3 sequence (Q01726 whole entry): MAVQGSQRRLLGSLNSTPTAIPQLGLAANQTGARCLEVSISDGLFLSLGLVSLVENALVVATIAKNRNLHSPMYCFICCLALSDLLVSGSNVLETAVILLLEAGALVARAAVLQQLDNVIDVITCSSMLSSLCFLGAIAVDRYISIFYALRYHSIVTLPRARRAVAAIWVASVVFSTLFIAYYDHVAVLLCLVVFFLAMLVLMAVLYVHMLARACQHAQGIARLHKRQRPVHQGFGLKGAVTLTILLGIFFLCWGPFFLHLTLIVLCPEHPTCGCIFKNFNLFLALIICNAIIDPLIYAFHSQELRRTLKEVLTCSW
T8 sequence (Q9Y3P9 whole entry): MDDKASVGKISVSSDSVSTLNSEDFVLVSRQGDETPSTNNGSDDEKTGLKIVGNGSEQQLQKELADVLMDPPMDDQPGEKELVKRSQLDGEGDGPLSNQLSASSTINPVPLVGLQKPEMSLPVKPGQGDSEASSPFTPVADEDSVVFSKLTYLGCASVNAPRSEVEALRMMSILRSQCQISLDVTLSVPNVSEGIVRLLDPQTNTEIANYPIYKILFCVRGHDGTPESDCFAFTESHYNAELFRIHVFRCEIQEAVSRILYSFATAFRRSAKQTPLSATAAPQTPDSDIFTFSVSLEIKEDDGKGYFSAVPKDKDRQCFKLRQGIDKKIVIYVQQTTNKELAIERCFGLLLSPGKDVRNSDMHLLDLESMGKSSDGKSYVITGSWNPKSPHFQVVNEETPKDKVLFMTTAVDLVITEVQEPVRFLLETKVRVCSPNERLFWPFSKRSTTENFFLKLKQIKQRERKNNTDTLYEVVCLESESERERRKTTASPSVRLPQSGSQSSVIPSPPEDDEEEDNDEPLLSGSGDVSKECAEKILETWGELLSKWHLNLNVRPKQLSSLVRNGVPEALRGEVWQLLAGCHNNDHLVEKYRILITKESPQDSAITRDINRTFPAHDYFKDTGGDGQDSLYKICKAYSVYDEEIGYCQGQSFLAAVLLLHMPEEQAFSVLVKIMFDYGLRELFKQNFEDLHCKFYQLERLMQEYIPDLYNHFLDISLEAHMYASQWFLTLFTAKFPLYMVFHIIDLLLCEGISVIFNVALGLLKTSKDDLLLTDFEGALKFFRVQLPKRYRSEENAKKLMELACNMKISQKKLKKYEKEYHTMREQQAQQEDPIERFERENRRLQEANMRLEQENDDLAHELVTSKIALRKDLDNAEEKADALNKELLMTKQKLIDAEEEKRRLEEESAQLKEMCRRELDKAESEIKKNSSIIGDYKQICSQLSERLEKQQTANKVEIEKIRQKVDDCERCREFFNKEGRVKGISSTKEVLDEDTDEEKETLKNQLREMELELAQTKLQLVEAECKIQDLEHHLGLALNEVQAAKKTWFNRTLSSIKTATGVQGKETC

Regarding `CC(C)OC(=O)[C@H](C)N[P@](=O)(OC[C@H]1O[C@@H](n2ccc(=O)[nH]c2=O)[C@](C)(F)[C@@H]1O)Oc1ccccc1` [sofosbuvir], the activation at 10 µM on 348 GPCRs [1] (setting [9]) was -0.976%; at 348 GPCRs [2] (setting [10]) it was 0.0833%; at 348 GPCRs [3] (setting [11]), 0.575%; on 348 GPCRs [4] (setting [12]), 3.51%; on 348 GPCRs [5] (setting [13]), 1.09%; at 348 GPCRs [7] (setting [15]), -0.929%. Moreover, the activation at 100 µM at 348 GPCRs [6] (setting [14]) is -7.92%; at 348 GPCRs [8] (setting [16]), -1.28%.

Consider `NC(=O)c1nc(F)cnc1O` [favipiravir, 6-fluoro-3-hydroxy-2-pyrazinecarboxamide], for which the activation at 10 µM is -1.3% at 348 GPCRs [1] (setting [17]) and -0.889% at 348 GPCRs [4] (setting [18]). The activation at 100 µM on 348 GPCRs [2] (GPCR VIPR1 (vasoactive intestinal peptide receptor 1), 100μM, read-out: % GPCR activation compared to TPA) is -0.983%; on 348 GPCRs [3] (GPCR MC1R (melanocyte-stimulating hormone receptor), 100μM, read-out: % GPCR activation compared to TPA) it was -0.375%; at 348 GPCRs [5] (GPCR GPR124 (Adhesion G Protein-Coupled Receptor A2 (ADGRA2)), 100μM, read-out: % GPCR activation compared to TPA) it was -1.17%; at 348 GPCRs [6] (setting [19]) it was 0.102%; at 348 GPCRs [7] (GPCR GPR61 (G protein-coupled receptor 61), 100μM, read-out: % GPCR activation compared to TPA), -3.47%; at 348 GPCRs [8] (setting [20]), -1.48%.

Regarding `CCC(CC)COC(=O)[C@H](C)N[P@](=O)(OC[C@H]1O[C@@](C#N)(c2ccc3c(N)ncnn23)[C@H](O)[C@@H]1O)Oc1ccccc1` [remdesivir], the activation at 10 µM on 348 GPCRs [1] (setting [9]) was -0.876%; on 348 GPCRs [2] (setting [10]), -1.85%; on 348 GPCRs [3] (setting [11]), -0.549%; on 348 GPCRs [4] (setting [12]), 1.04%; at 348 GPCRs [5] (setting [13]), -0.926%; at 348 GPCRs [7] (setting [15]) it was -3.23%. The activation at 100 µM on 348 GPCRs [6] (setting [14]) is 2.29%; on 348 GPCRs [8] (setting [16]), -0.577%.

Take `N#C[C@@]1(c2ccc3c(N)ncnn23)O[C@H](CO)[C@@H](O)[C@H]1O` [GS441524]: the activation at 10 µM at 348 GPCRs [1] (setting [17]) is -3.48%; on 348 GPCRs [2] (setting [21]) it was -2.1%; on 348 GPCRs [3] (setting [22]), 0.496%; at 348 GPCRs [4] (setting [18]) it was -1.23%; on 348 GPCRs [5] (setting [23]), 0.29%; at 348 GPCRs [7] (setting [24]), -3.94%. Further, the activation at 100 µM at 348 GPCRs [6] (setting [19]) is 1.05%; at 348 GPCRs [8] (setting [20]), -1.83%.

As to `CC(C)C(=O)OC[C@H]1O[C@@H](n2ccc(NO)nc2=O)[C@H](O)[C@@H]1O` [molnupiravir], the activation at 10 µM on 348 GPCRs [1] (setting [17]) was -1.32%; at 348 GPCRs [2] (setting [21]) it was -0.522%; on 348 GPCRs [3] (setting [22]), 0.0444%; on 348 GPCRs [4] (setting [18]), -0.773%; at 348 GPCRs [5] (setting [23]), -0.928%; at 348 GPCRs [7] (setting [24]), -0.396%. Further, the activation at 100 µM at 348 GPCRs [6] (setting [19]) is 0.933%; at 348 GPCRs [8] (setting [20]), -0.481%.
